Viability data for 17 molecules are collected here from patent US10105357B2, “Indication of antibiotic drugs for preparation of cancer inhibition pharmaceutical composition” (LAUNX BIOMEDICAL CO., LTD., priority 2014, dated 2018).

Experiment [1] has as its system PC3 (p53−) (Prostate Adenocarcinoma). Nature of the experiment: Cell viability analysis, prostate cancer PC3. It counts as cell-based, human. The conditions noted are these: Homo sapiens, 72 h.
Experiment [2] relates to BxPC-3. Nature of the experiment: Cell viability analysis, pancreatic cancer BxPC-3. The class given is cell-based, human. The conditions noted are these: Homo sapiens, read-out: The results of antibiotic drug inhibiting cancer cell lines (cell viability analysis), BxPC-3.
Experiment [3] deals with HCT116 (p53+) (Colorectal Carcinoma). Nature of the experiment: cells. The conditions noted are these: Homo sapiens, HCT-116, 72 h, read-out: cell viability (survival rate), HCT116.
[4] abbreviates: PC-3, repeated experiment, read-out: The results of antibiotic drug inhibiting cancer cell lines (cell viability analysis), PC-3.
Where [5] appears, read: drug 10 μM, 72 hours, WST-1, OD450 nm, read-out: cell viability (survival rate), PC3.
[6] abbreviates: 72 h, BxPC-3, repeated experiment.
The mark [7] stands for this setting: read-out: The results of antibiotic drug inhibiting cancer cell lines (cell viability analysis), PC-3, PC-3, repeated experiment.
Setting [8] is: read-out: cell viability (survival rate), PC3, drug 10 μM, 72 hours, WST-1, OD450 nm.

What is called viability is a read-out of living cells in per cent, often relative to untreated cells.

Structures can show the parent of a compound that is named as a salt. Where two headings read alike, the source gives them in different places.

Turning to `CC[C@@H]([C@H](C)O)n1ncn(-c2ccc(N3CCN(c4ccc(OC[C@@H]5CO[C@@](Cn6cncn6)(c6ccc(F)cc6F)C5)cc4)CC3)cc2)c1=O` [Posaconazole], the viability at 10 µM in experiment [1] (setting [4]) came out at 52.1%; in experiment [1] (setting [5]), 45.3%; in experiment [2] (setting [6]), 42.6%.
Turning to `Clc1ccc(C(Cn2ccnc2)OCc2ccsc2Cl)c(Cl)c1` (stereo not drawn) [Tioconazole], the viability at 10 µM in experiment [1] (setting [7]) came to 104%; in experiment [1] (setting [8]) it was 40.7%; in experiment [2] (BXPC-3, 72 h), 69.2%.
With `CCCCCCCCCCCCCCCC[N+](C)(C)CCN(Cc1ccc(OC)cc1)c1ncccn1` [Thonzonium Bromide], the viability at 10 µM in experiment [3] stood at 32.9%; in experiment [1] (setting [4]) it was 29.3%; in experiment [1] (setting [5]), 46.2%; in experiment [2] (setting [6]) it was 24.4%.
Take `Clc1ccc(COC(Cn2ccnc2)c2ccc(Cl)cc2Cl)c(Cl)c1` (stereo not drawn) [Miconazole nitrate]: the viability at 10 µM was found to be 116% in experiment [1] (setting [7]); 30.4% in experiment [1] (setting [8]); 65.3% in experiment [2] (BXPC-3, 72 h).
The corresponding values for `Cc1ncc([N+](=O)[O-])n1CCO` [Metronidazole (Flagyl), Metronidazole] are 95.6%, 40.9% and 83.6%.
The corresponding values for `CC(C)(C)C(=O)OCOP(=O)(COCCn1cnc2c(N)ncnc21)OCOC(=O)C(C)(C)C` [Adefovir Dipivoxil (Preveon, Hepsera), Adefovir Dipivoxil] are 74.8%, 91.3% and 56.9%.
As to `NC(=O)N/N=C/c1ccc([N+](=O)[O-])o1` [Nitrofurazone (Nitrofural), Nitrofurazone], the viability at 10 µM in experiment [1] (setting [4]) worked out at 98.6%; in experiment [1] (setting [5]) it was 53.8%; in experiment [2] (setting [6]), 71.6%.
Take `CC(NC(C)(C)C)C(=O)c1cccc(Cl)c1` (stereo not drawn) [Amfebutamone (Bupropion), Amfebutamone]: the viability at 10 µM in experiment [1] (setting [7]) was determined as 87.9%; in experiment [1] (setting [8]) it was 62.8%; in experiment [2] (BXPC-3, 72 h), 79.6%.
Regarding `Cc1ccc2c(Cl)cc(Cl)c(O)c2n1` [Chlorquinaldol], the results for the viability at 10 µM in experiment [1] (setting [4]), in experiment [1] (setting [5]) and in experiment [2] (setting [6]) were 66.4%, 68.4% and 53.9%, respectively.
`CN(C)[C@@H]1C(O)=C(C(N)=O)C(=O)[C@@]2(O)C(O)=C3C(=O)c4c(O)ccc(Cl)c4[C@@](C)(O)[C@H]3C[C@@H]12` [Chlortetracycline HCl]: the viability at 10 µM came out at 108% in experiment [1] (setting [7]); 38.2% in experiment [1] (setting [8]); 63.7% in experiment [2] (BXPC-3, 72 h).
On to `COc1cc(NC(C)CCCN)c2ncccc2c1` (stereo not drawn) [Primaquine Diphosphate], for which the viability at 10 µM in experiment [3] was found to be 69.5%; in experiment [1] (setting [7]), 65.7%; in experiment [1] (setting [8]) it was 60.3%; in experiment [2] (BXPC-3, 72 h) it was 49.8%.
With `CC(C)/N=c1\cc2n(-c3ccc(Cl)cc3)c3ccccc3nc-2cc1Nc1ccc(Cl)cc1` [Clofazimine], the viability at 10 µM in experiment [1] (setting [4]) was found to be 106%; in experiment [1] (setting [5]), 53.2%; in experiment [2] (setting [6]), 72.2%.
The corresponding values for `COc1c(C)c2c(c(O)c1C/C=C(\C)CCC(=O)O)C(=O)OC2` [Mycophenolic (Mycophenolate), Mycophenolic] are 55.4%, 74.3% and 45.7%.
In the case of `CC(C)(C)CC(C)(C)c1ccc(O)c(Cc2ccc(Cl)cc2Cl)c1` [Clofoctol], the viability at 10 µM was 61% in experiment [3], 110% in experiment [1] (setting [4]), 63.4% in experiment [1] (setting [5]) and 65.8% in experiment [2] (setting [6]).
Regarding `CN(C)CCC=C1c2ccccc2CCc2ccccc21` [Amitriptyline HCl], the viability at 10 µM in experiment [1] (setting [4]) came to 99.4%; in experiment [1] (setting [5]), 61.9%; in experiment [2] (setting [6]), 67.2%.
Take `CCc1cc2c(cc1CC)CC(NC[C@H](O)c1ccc(O)c3[nH]c(=O)ccc13)C2` [Indacaterol Maleate]: the viability at 10 µM in experiment [1] (setting [4]) amounted to 100%; in experiment [1] (setting [5]), 55.5%; in experiment [2] (setting [6]), 91.4%.
For the molecule `CN(C)[C@@H]1C(O)=C(C(N)=O)C(=O)[C@@]2(O)C(O)=C3C(=O)c4c(O)cccc4[C@@](C)(O)[C@H]3C[C@@H]12` [Tetracycline HCl], the viability at 10 µM in experiment [1] (setting [7]) was 104%; in experiment [1] (setting [8]), 42.9%; in experiment [2] (BXPC-3, 72 h), 77.7%.
